The values below are quoted from earlier work in patent US20220211725A1, “Pharmaceutical Composition Comprising Venetoclax” (Alembic Pharmaceuticals Limited, priority 2019, published 2022).

SMILES strings stand for the structures.

The conditions of the data set: background description.

With `CC1(C)CCC(CN2CCN(c3ccc(C(=O)NS(=O)(=O)c4ccc(NCC5CCOCC5)c([N+](=O)[O-])c4)c(Oc4cnc5[nH]ccc5c4)c3)CC2)=C(c2ccc(Cl)cc2)C1` [Venetoclax], the aqueous solubility entry is reported as “very low”.
